The test system of data set [1] is SARS-CoV-2 (clinically isolated strain IHUMI-3). In kind it is cell-based. The note with it: for Selectivity index (SI), ratio CC50/EC50: Vero E6 cells.
The nature of another data set: Cytotoxicity assay. To be noted: African green monkey, Vero E6 cells. It counts as cell-based.
The test system of data set [2] is SARS-CoV-2. To be noted: read-out: EC50 against SARS-CoV-2; Vero E6 cells, MOI of 0.2; cited from earlier work.
For data set [3] the following is noted: at 6 h; cited from earlier work.
For data set [4] the following is noted: cited from earlier work.
For data set [5] the following is noted: cited from earlier work. This is another data set of the same source.
Data set [6] relates to Ebola virus. The note with it: read-out: EC50 against Ebola virus; cited from earlier work.
The conditions of data set [7]: cited from earlier work. The source holds these as a separate data set.
For data set [8], the system named is Ebola virus. The note with it: mouse, in vivo; cited from earlier work.
In the next data set the test system is dengue virus type 2. To be noted: cited from earlier work.
The test system of data set [9] is SARS-CoV-1. To be noted: read-out: EC50 against SARS-CoV-1; cited from earlier work.
Data set [10] has as its system SARS-CoV-1. To be noted: mouse; cited from earlier work.
The conditions of data set [11]: human, uptake of 612 mg, extrapolated from 0.07% of dose in rat lung.
For data set [12], the system named is SARS-CoV-2. To be noted: read-out: EC50 against SARS-CoV-2; in vitro; cited from earlier work.
The conditions of data set [13]: can go up; cited from earlier work.
The test system of data set [14] is SARS-CoV-2. The note with it: 10 μM, Vero E6 cells infected by SARS-CoV-2; cited from earlier work.
For the next data set, the system named is feline coronavirus. To be noted: read-out: EC50 against feline coronavirus; cited from earlier work.
Where [15] appears, read: rats, single oral dose of 2 mg (10 mg/kg).
[16] abbreviates: amodiaquine given at 612 mg day.

Values joined by “and” are separate entries in the source; they are usually repeats but may differ in a detail not shown here. Equal entries are not always repeated. Where two headings read alike, the source gives them in different places.

As to `C[C@H]1[C@@H](O)O[C@@H]2O[C@@]3(C)CC[C@H]4[C@H](C)CC[C@@H]1[C@@]24OO3` [Dihydroartemisinin], in [1], the “Selectivity index (SI), ratio CC50/EC50” value is on record as 3. For the same molecule, in “Cytotoxicity assay”, half-maximal cytotoxicity (CC50 at 48 h) was put at 58.9 ± 7.4 µM.

`CCN(CCO)CCCC(C)Nc1ccnc2cc(Cl)ccc12` (stereo not shown) [Hydroxychloroquine]: in the data set with SARS-CoV-2 [2], the EC50 was 17.3 µM. Besides, the CC50 at 48 h in the data set “Cytotoxicity assay” is 20.4 ± 1.4 µM. Moreover, in [3], the Blood concentration entry is reported as “around 0.3 μM” and the Lung concentration is 7.8 µM. Further, the Cmax in data set [4] (oral uptake of 400 mg) was 1220 nM.

As to `COc1ccc2nc3cc(Cl)ccc3c(Nc3cc(CN4CCCC4)c(O)c(CN4CCCC4)c3)c2n1` [Pyronaridine], the “Selectivity index (SI), ratio CC50/EC50” value in data set [1] worked out at 22. For the same molecule, the Adverse events entry in [5] is listed as “around 38%”. Moreover, the EC50 with Ebola virus [6] was 1.14 µM. In data set [7] (setting [15]), the “Blood Cmax” value is 223 ng/mL, the “Lung Cmax” value is 36.4 µg/g and the “Lung Cmax relative to blood Cmax (more concentrated)” value is reported as 165. Moreover, in the data set “Cytotoxicity assay”, the CC50 at 48 h stood at 15.9 ± 1.6 µM. For the same molecule, in the data set with Ebola virus [8], the “Protection against Ebola virus infection” value is given as “protected mice”. Besides, the t1/2 in data set [4] (720 mg day, human) is recorded as 33.5 days. Besides, in data set [4] (720 mg day, human, listed as Pyronaridine tetraphosphate), the Plasma concentration was 271 ng/ml and around 0.3 μM.

In the case of `CCN(CC)Cc1cc(Nc2ccnc3cc(Cl)ccc23)ccc1O` [Amodiaquine], the EC50 is 1.08 µM with dengue virus type 2 (read-out: EC50, dengue virus type 2 replication) and 2.5 µM in the data set with SARS-CoV-1 [9]. Besides, the EC90 in the data set with dengue virus type 2 (read-out: EC90, dengue virus type 2 replication) is 2.69 µM. Further, in the data set on SARS-CoV-1 [10], the “In vivo activity on SARS-CoV-1” value is “inactive”. In data set [11], the “Amount that would be found in lungs” value was 428 µg.

In the case of `Clc1ccc2c(N3CCN(CCCN4CCN(c5ccnc6cc(Cl)ccc56)CC4)CC3)ccnc2c1` [Piperaquine], the “Selectivity index (SI), ratio CC50/EC50” value in data set [1] amounted to 2. The same molecule had a CC50 at 48 h in “Cytotoxicity assay” of 55 ± 4.8 µM.

Turning to `C[C@H]1c2cccc(O)c2C(=O)C2=C(O)[C@]3(O)C(=O)C(C(N)=O)=C(O)[C@@H](N(C)C)[C@@H]3[C@@H](O)[C@@H]21` [doxycycline], the EC50 in the data set on SARS-CoV-2 [12] is 5.6 µM.

Turning to `CCNCc1cc(Nc2ccnc3cc(Cl)ccc23)ccc1O` [Desethylamodiaquine], it took 86.1 ± 10.5 µM to reach half-maximal cytotoxicity in “Cytotoxicity assay” (CC50 at 48 h). Also, in [4] (setting [16]), the “Plasma concentration of desethylamodiaquine” value was 753 ng/ml and around 1.9 μM; the t1/2 is given as 8.9 days.

Take `C=C[C@H]1C[N@@]2CC[C@H]1C[C@H]2[C@H](O)c1ccnc2ccc(OC)cc12` [Quinine]: in data set [7] (rat, intravenous dose of 10 mg/kg), the Concentration lung/blood ratio is 246. In the data set “Cytotoxicity assay”, this molecule showed a CC50 at 48 h of more than 100 µM. For the same molecule, the “Blood Cmax” value in [4] (600 mg single oral dose of quinine sulphate) was “around 3.5 mg/l”. For the same molecule, the Cmax in [4] (read-out: Blood Cmax, 600 mg single oral dose of quinine sulphate) was approximately 8500 nM.

On to `CCN(CC)CCCC(C)Nc1ccnc2cc(Cl)ccc12` (stereo not shown) [Chloroquine], for which the “Selectivity index (SI), ratio CC50/EC50” value in data set [1] is more than 47. Also, the “Concentration in the lung” value in [13] is recorded as “up to 280 mg/kg”. Further, the Adverse events in [5] was 56%. For the same molecule, the EC50 in the data set on SARS-CoV-2 [2] was 7.1 µM; in the data set with SARS-CoV-1 [9], 2.5 µM. The molecule further came in with a CC50 at 48 h in “Cytotoxicity assay” of more than 100 µM. For the same molecule, the “In vivo activity on SARS-CoV-1” value in the data set on SARS-CoV-1 [10] was “inactive”. Also, the Plasma concentration in data set [4] (chloroquine 100 mg day, prophylaxis of malaria) is 0.01–0.4 mg/l and 0.03–1.25 μM.

As to `OC(c1cc(C(F)(F)F)nc2c(C(F)(F)F)cccc12)C1CCCCN1` (stereo not shown) [Mefloquine], in “Cytotoxicity assay”, the CC50 at 48 h came out at 14.4 ± 2.1 µM. Besides, the “Inhibition of cytopathic effect” value in the data set with SARS-CoV-2 [14] was “inhibited completely”.

As for Ferroquine, the EC90 in data set [1] (read-out: 90% effective concentration (EC90) against SARS-CoV-2) was 2.4 ± 0.9 µM. Also, the EC50 in data set [1] (read-out: Median effective concentration (EC50) against SARS-CoV-2) was 1.5 ± 0.3 µM; in the data set with SARS-CoV-1 [9], 1.4 µM; with feline coronavirus, 2.9 µM. In addition, the “Mean Cmax (maximum blood concentration)” value in data set [4] (oral uptake of 800 mg) was 155 ng/mL. Besides, in [4] (oral uptake of 800 mg), the “t1/2 (elimination half-life)” value is on record as 10.9 days. The Cmax in data set [4] (read-out: Mean Cmax (maximum blood concentration), oral uptake of 800 mg) is approximately 600 nM.

For the molecule `CCCCN(CCCC)CC(O)c1cc(Cl)cc2c1-c1ccc(Cl)cc1/C2=C/c1ccc(Cl)cc1` (stereo not shown) [Lumefantrine], in data set [1], the “Selectivity index (SI), ratio CC50/EC50” value turned out to be 4. It took 87.7 ± 11.9 µM to reach half-maximal cytotoxicity in “Cytotoxicity assay” (CC50 at 48 h). Further, the Cmax in data set [4] (single oral dose 480 mg) is 1100 nM.

The record behind these values is paper PMC7477610 (Travel Medicine and Infectious Disease, 2020).
